Data on nine compounds can be found in PubChem BioAssay (NCI).

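Values below derive from 48-hour exposures of cells grown in 96-well plates, with endpoints linearly interpolated between the two concentrations bracketing the appropriate inhibition level. At the GI50, growth is halved. At the TGI there is no net growth.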

Test systems include BT-549 breast; ACHN renal; P388/ADR leukemia; KM20L2 colon.
Common to all, as to assay: NCI tumour cell line growth inhibition, 48 h

`CCOc1ncn(-c2ccc(NC(=S)Nc3cccc(O)c3)cc2)n1`: the TGI with BT-549 breast was over 100 µM.

For the compound `COC[C@H]1C(=O)NCC(=O)N2NCCC[C@H]2C(=O)N(O)[C@H](C)C(=O)O[C@@H](C(C)C)[C@H](NC(=O)[C@](C)(O)[C@]2(O)CC[C@@H](CC(C)C)[C@H](C)O2)C(=O)N2NCCC[C@@H]2C(=O)N1O`, in the experiment on ACHN renal, the GI50 was 0.0168 µM and the TGI came out at 0.0307 µM.

Regarding `CC1(C)CCc2c(cc3c(c2O)CCC(C)(C)O3)O1`, the TGI in the experiment on ACHN renal and in the experiment with BT-549 breast was over 100 µM throughout.

As to `Cc1ccc(OP2(=O)Oc3ccc4ccccc4c3CN2c2ccc(Cl)cc2)cc1C` (stereo not given), the TGI with P388/ADR leukemia and with KM20L2 colon was over 100 µM throughout.

Turning to `C=C/C(C)=C/[C@H](C)C(=O)C[C@H](O)CC1CC(=O)NC(=O)C1`, the TGI with P388/ADR leukemia and with KM20L2 colon was over 100 µM each time.

Regarding `COc1ccc2c(O)c3[n+](cc2c1OC)CCc1cc2c(cc1-3)OCO2`, the TGI in the experiment on ACHN renal and in the experiment on BT-549 breast was over 100 µM throughout.

`Nc1cc2c(cc1[N+](=O)[O-])[nH]c1c(-c3ccccc3)nccc12`: the results for the TGI in the experiment with P388/ADR leukemia and in the experiment with KM20L2 colon were 44.5 µM and over 82.8 µM, respectively.

On to `COc1ccc(C(=O)C2CC3(CCC2(O)c2ccc(OC)cc2)CC(=O)Nc2ccccc2C3=O)cc1` (stereo not given), for which the TGI in the experiment on BT-549 breast is over 100 µM.

`CO/C(=N\N=C(/C)C(F)(F)F)c1ccncc1`: in the experiment on BT-549 breast, the TGI was over 100 µM.
